IC50 data for 28 compounds are collected here from US20120015907A1, “Furopyridine compounds and uses thereof” (NOVARTIS AG, priority 2010, published 2012).

What is called IC50 is the concentration that gives 50% inhibition.

The test concerns the target T1, HCV polymerase (Hepatitis C virus genotype 1b, UniProt Q9WMX2).
T1 construct: (His)6 (C)
Kind of test: biochemical. The settings on record: polymerase assay of Biological Example 1; read-out: NS5B polymerase IC50. The source says:
A number of assays have been published to assess these activities. A general method that assesses the gross increase of HCV virus in culture was disclosed in U.S. Pat. No. 5,738,985 to Miles et al. In vitro assays have been reported in Ferrari et al. Jnl. of Vir., 73:1649-1654, 1999; Ishii et al., Hepatology, 29:1227-1235, 1999; Lohmann et al., Jnl of Bio. Chem., 274:10807-10815, 1999; and Yamashita et al., Jnl. of Bio. Chem., 273:15479-15486, 1998.
WO 97/12033, filed on Sep. 27, 1996, by Emory University, listing C. Hagedorn and A. Reinoldus as inventors, which claims priority to U.S. Provisional Patent Application Ser. No. 60/004,383, filed on September 1995, described an HCV polymerase assay that can be used to evaluate the activity of the of the compounds described herein. Another HCV polymerase assay has been reported by Bartholomeusz, et al., Hepatitis C Virus (HCV) RNA polymerase assay using cloned HCV non-structural proteins; Antiviral Therapy 1996:1(Supp 4) 18-24.
Turning to `CCc1cc2c(C(=O)NC)c(-c3ccc(F)cc3)oc2nc1N(CCCNS(C)(=O)=O)S(C)(=O)=O` [Example 23.4, 5-ethyl-2-(4-fluorophenyl)-N-methyl-6-(N-(3-(methylsulfonamido)propyl)methylsulfonamido)furo[2,3-b]pyridine-3-carboxamide], the IC50 worked out at 125 nM. Turning to `CCc1cc2c(C(=O)NC)c(-c3ccc(F)cc3)oc2nc1N(CCCS(=O)(=O)CC)S(C)(=O)=O` [Example 23.992, 5-ethyl-6-(N-(3-(ethylsulfonyl)propyl)methylsulfonamido)-2-(4-fluorophenyl)-N-methylfuro[2,3-b] pyridine-3-carboxamide], the IC50 amounted to 67 nM. The figure for `CCc1cc2c(C(=O)NC)c(-c3ccc(F)cc3)oc2nc1N(CCC[S+](C)[O-])S(C)(=O)=O` (stereo not shown) [Example 23.999, 5-ethyl-2-(4-fluorophenyl)-N-methyl-6-(N-(3-(methylsulfinyl)propyl)methylsulfonamido)furo[2,3-b]pyridine-3-carboxamide] is 79 nM. With `CNC(=O)c1c(-c2ccc(C)cc2)oc2nc(N(CCCC3(C(=O)O)CCN(C(=O)C(C)(C)C)CC3)S(C)(=O)=O)c(C3CC3)cc12` [Example 29.999992, 4-(3-(N-(5-cyclopropyl-3-(methylcarbamoyl)-2-p-tolylfuro[2,3-b]pyridin-6-yl)methylsulfonamido)propyl)-1-pivaloylpiperidine-4-carboxylic acid], the IC50 was 7 nM.

On to `C=CCc1cc2c(C(=O)NC)c(-c3ccc(F)cc3)oc2nc1N(C)S(C)(=O)=O` [Example 4.2, 5-allyl-2-(4-fluorophenyl)-N-methyl-6-(N-methylmethylsulfonamido)furo[2,3-b]pyridine-3-carboxamide], for which the IC50 turned out to be 128 nM. As for `CCc1cc2c(C(=O)NC)c(-c3ccc(F)cc3)oc2nc1N(CCCCS(=O)(=O)c1ccccc1)S(C)(=O)=O` [Example 23.8, 5-ethyl-2-(4-fluorophenyl)-N-methyl-6-(N-(4-(phenylsulfonyl)butyl)methylsulfonamido)furo[2,3-b]pyridine-3-carboxamide], the IC50 turned out to be 58 nM. Turning to `CCc1cc2c(C(=O)NC)c(-c3ccc(F)cc3)oc2nc1N(CCN1Cc2ccccc2S1(=O)=O)S(C)(=O)=O` [Example 22.994, 6-{[2-(1,1-Dioxo-1,3-dihydrobenzo[d]isothiazol-2-yl)-ethyl]-methanesulfonyl-amino}-5-ethyl-2-(4-fluoro-phenyl)-furo[2,3-b]pyridine-3-carboxylic acid methylamide], the IC50 is 1060 nM.

On to `CCc1cc2c(C(=O)NC)c(-c3ccc(F)cc3)oc2nc1N(CCCO)S(C)(=O)=O` [Example 23.2, 5-ethyl-2-(4-fluorophenyl)-6-(N-(3-hydroxypropyl)methylsulfonamido)-N-methylfuro[2,3-b]pyridine-3-carboxamide], for which the 50% inhibitory concentration (IC50) worked out at 144 nM. With `CCc1cc2c(C(=O)NC)c(-c3ccc(F)cc3)oc2nc1N(CCC1CCN(C(=O)OC(C)(C)C)CC1)S(C)(=O)=O` [Example 21.995, tert-butyl 4-(2-(N-(5-ethyl-2-(4-fluorophenyl)-3-(methylcarbamoyl)furo[2,3-b]pyridin-6-yl)methylsulfonamido)ethyl)piperidine-1-carboxylate], the IC50 was 155 nM.

Turning to `CNC(=O)c1c(-c2ccc(C)cc2)oc2nc(N(CC(O)CCC(=O)O)S(C)(=O)=O)c(C3CC3)cc12` (stereo not shown) [Example 29.995, 5-(N-(5-cyclopropyl-3-(methylcarbamoyl)-2-p-tolylfuro[2,3-b]pyridin-6-yl)methylsulfonamido)-4-hydroxypentanoic acid], the IC50 worked out at 13 nM. As for `CCc1cc2c(C(=O)NC)c(-c3ccc(F)cc3)oc2nc1N(CCCNS(=O)(=O)c1ccccc1)S(C)(=O)=O` [23.6], the IC50 worked out at 93 nM.

Regarding `CCc1cc2c(C(=O)NC)c(-c3ccc(F)cc3)oc2nc1N(CCCCl)S(C)(=O)=O` [Example 22.997, 6-(N-(3-chloropropyl)methylsulfonamido)-5-ethyl-2-(4-fluorophenyl)-N-methylfuro[2,3-b]pyridine-3-carboximide], the IC50 was 83 nM.

On to `C=C(C)c1cc2c(C(=O)NC)c(-c3ccc(F)cc3)oc2nc1N(C)S(C)(=O)=O` [Example 2.4, 2-(4-fluorophenyl)-N-methyl-6-(N-methylmethylsulfonamido)-5-(prop-1-en-2-yl)furo[2,3-b]pyridine-3-carboxamide], for which the IC50 came out at 132 nM.

In the case of `CCc1cc2c(C(=O)NC)c(-c3ccc(F)cc3)oc2nc1N(CCCN(C)C(=O)c1ccccc1)S(C)(=O)=O` [Example 23.998, 5-ethyl-2-(4-fluorophenyl)-N-methyl-6-(N-(3-(N-methylbenzamido)propyl)methylsulfonamido)furo[2,3-b]pyridine-3-carboxamide], the IC50 turned out to be 184 nM. `CNC(=O)c1c(-c2ccc(F)cc2)oc2nc(N(CCCC#N)S(C)(=O)=O)c(I)cc12` [Example 18.2, 6-(N-(3-cyanopropyl)methylsulfonamido)-2-(4-fluorophenyl)-5-iodo-N-methylfuro[2,3-b]pyridine-3-carboxamide]: the IC50 is 61 nM. In the case of `CNC(=O)c1c(-c2ccc(C)cc2)oc2nc(N(CCC[C@H](COC)C(=O)N3C(=O)OC[C@@H]3Cc3ccccc3)S(C)(=O)=O)c(I)cc12` [Example 47.71], the IC50 was determined as 26 nM.

In the case of `CNC(=O)c1c(-c2ccc(F)cc2)oc2nc(N(CCn3ccnc3)S(C)(=O)=O)c(I)cc12` [Example 23.995, 6-(N-(2-(1H-imidazol-1-yl)ethyl)methylsulfonamido)-2-(4-fluorophenyl)-5-iodo-N-methylfuro[2,3-b]pyridine-3-carboxamide], the IC50 came to 114 nM. For the compound `CNC(=O)c1c(-c2ccc(F)cc2)oc2nc(N(CCCC(O)CO)S(C)(=O)=O)c(I)cc12` (stereo not shown) [Example 18.93, 6-(N-(4,5-dihydroxypentyl)methylsulfonamido)-2-(4-fluorophenyl)-5-iodo-N-methylfuro[2,3-b]pyridine-3-carboxamide], the IC50 was found to be 108 nM. As to `CCc1cc2c(C(=O)NC)c(-c3ccc(F)cc3)oc2nc1N(CCOc1ccc2cccnc2c1)S(C)(=O)=O` [Example 22.8, 5-ethyl-2-(4-fluorophenyl)-N-methyl-6-(N-(2-(quinolin-7-yloxy)ethyl)methylsulfonamido)furo[2,3-b]pyridine-3-carboxamide], the IC50 stood at 45 nM. Consider `C=CCCN(c1nc2oc(-c3ccc(F)cc3)c(C(=O)NC)c2cc1I)S(C)(=O)=O` [Example 18.3, 6-(N-(but-3-enyl)methylsulfonamido)-2-(4-fluorophenyl)-5-iodo-N-methylfuro[2,3-b]pyridine-3-carboxamide], for which the IC50 was found to be 103 nM. For `CNC(=O)c1c(-c2ccc(F)cc2)oc2nc(N(CCCC(=O)OC)S(C)(=O)=O)c(I)cc12` [Example 18.7, methyl 4-(N-(2-(4-fluorophenyl)-5-iodo-3-(methylcarbamoyl)furo[2,3-b]pyridin-6-yl)methylsulfonamido)butanoate], the IC50 came to 76 nM. In the case of `CNC(=O)c1c(-c2ccc(F)cc2)oc2nc(N(CCCCC(=O)O)S(C)(=O)=O)c(C3CC3)cc12` [Example 26.9, 5-(N-(5-cyclopropyl-2-(4-fluorophenyl)-3-(methylcarbamoyl)furo[2,3-b]pyridin-6-yl)methylsulfonamido) pentanoic acid], the half-inhibitory concentration (IC50) came to 3 nM. Next, `CCc1cc2c(C(=O)NC)c(-c3ccc(F)cc3)oc2nc1N(CCc1ccncc1)S(C)(=O)=O` [Example 21.996, 5-ethyl-2-(4-fluorophenyl)-N-methyl-6-(N-(2-(pyridin-4-yl)ethyl)methylsulfonamido)furo[2,3-b]pyridine-3-carboxamide]: 94 nM; `CCc1cc2c(C(=O)NC)c(-c3ccc(F)cc3)oc2nc1N(CCCS(=O)(=O)N1CCCC1)S(C)(=O)=O` [Example 22.91, 5-ethyl-2-(4-fluorophenyl)-N-methyl-6-(N-(3-(pyrrolidin-1-ylsulfonyl)propyl)methylsulfonamido)furo[2,3-b]pyridine-3-carboxamide]: 34 nM; `CNC(=O)c1c(-c2ccc(C)cc2)oc2nc(N(CCOCCC3(C(=O)O)CCOCC3)S(C)(=O)=O)c(C3CC3)cc12` [Example 29.99995, 4-(2-(2-(N-(5-cyclopropyl-3-(methylcarbamoyl)-2-p-tolylfuro[2,3-b]pyridin-6-yl)methylsulfonamido)ethoxy)ethyl)tetrahydro-2H-pyran-4-carboxylic acid]: 32 nM. `CNC(=O)c1c(-c2ccc(C)cc2)oc2nc(N(CCCC(C)(OC)C(=O)O)S(C)(=O)=O)c(C3CC3)cc12` (stereo not shown) [Example 29.9992, 5-(N-(5-cyclopropyl-3-(methylcarbamoyl)-2-p-tolylfuro[2,3-b]pyridin-6-yl)methylsulfonamido)-2-methoxy-2-methylpentanoic acid]: the IC50 is 4 nM.

As for `CNC(=O)c1c(-c2ccc(C)cc2)oc2nc(N(CCc3ccccc3C(=O)O)S(C)(=O)=O)c(C3CC3)cc12` [Example 45, 2-(2-(N-(5-cyclopropyl-3-(methylcarbamoyl)-2-(p-tolyl)furo[2,3-b]pyridin-6-yl)methylsulfonamido)ethyl)benzoic acid], the IC50 was determined as 8 nM. As to `CNC(=O)c1c(-c2ccc(F)cc2)oc2nc(N(C)S(C)(=O)=O)c(CCCCCNC(C)=O)cc12` [Example 14.3, 5-(5-Acetylamino-pentyl)-2-(4-fluoro-phenyl)-6-(methanesulfonyl-methyl-amino)-furo[2,3-b]pyridine-3-carboxylic acid methylamide], the IC50 amounted to 498 nM.
